These results are taken from ChEMBL document CHEMBL1255203 (Bioorg Med Chem Lett, 2010).

Common to all, as to type: ADME
One test concerns the target T1, Cytochrome P450 1A2 (Homo sapiens, UniProt P05177).
T1 sequence (P05177 whole entry): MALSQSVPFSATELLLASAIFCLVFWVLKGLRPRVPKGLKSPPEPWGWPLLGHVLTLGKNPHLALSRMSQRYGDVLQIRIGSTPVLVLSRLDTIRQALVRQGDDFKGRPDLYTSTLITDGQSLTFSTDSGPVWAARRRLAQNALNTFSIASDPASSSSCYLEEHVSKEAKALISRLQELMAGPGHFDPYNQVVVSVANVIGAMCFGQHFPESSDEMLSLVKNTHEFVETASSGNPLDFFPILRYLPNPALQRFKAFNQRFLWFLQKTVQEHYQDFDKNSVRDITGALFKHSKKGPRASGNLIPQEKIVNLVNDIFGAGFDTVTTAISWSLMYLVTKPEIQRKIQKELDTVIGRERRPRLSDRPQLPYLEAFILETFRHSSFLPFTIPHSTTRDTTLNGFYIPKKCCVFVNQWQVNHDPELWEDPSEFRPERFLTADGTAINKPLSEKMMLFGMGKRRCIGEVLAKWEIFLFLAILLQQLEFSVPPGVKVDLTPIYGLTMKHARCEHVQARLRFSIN
Kind of test: Inhibition of human CYP1A2.

The target in the next test is Cytochrome P450 2C9 (Homo sapiens, UniProt P11712). Kind of test: Inhibition of human CYP2C9.
Another test concerns the target Cytochrome P450 2D6 (Homo sapiens, UniProt P10635). Description: Inhibition of human CYP2D6.
In a further test the target is Cytochrome P450 3A4 (Homo sapiens, UniProt P08684). Kind of test: Inhibition of human CYP3A4.
Chain of Cytochrome P450 3A4 (P08684 whole entry): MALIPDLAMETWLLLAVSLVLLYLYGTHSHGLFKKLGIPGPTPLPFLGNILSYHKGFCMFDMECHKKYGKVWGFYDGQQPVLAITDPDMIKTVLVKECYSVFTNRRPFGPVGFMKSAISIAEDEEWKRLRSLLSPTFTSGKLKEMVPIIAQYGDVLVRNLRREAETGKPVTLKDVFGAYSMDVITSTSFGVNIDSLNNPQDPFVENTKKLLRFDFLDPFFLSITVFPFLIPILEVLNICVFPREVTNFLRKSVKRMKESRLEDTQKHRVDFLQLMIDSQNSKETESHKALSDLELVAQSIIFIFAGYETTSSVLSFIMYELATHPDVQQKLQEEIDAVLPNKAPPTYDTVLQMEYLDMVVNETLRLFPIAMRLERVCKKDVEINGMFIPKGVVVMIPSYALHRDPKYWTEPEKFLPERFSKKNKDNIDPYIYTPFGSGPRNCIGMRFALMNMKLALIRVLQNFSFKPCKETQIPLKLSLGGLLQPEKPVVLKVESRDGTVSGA

Chain of Cytochrome P450 2D6 (P10635 whole entry): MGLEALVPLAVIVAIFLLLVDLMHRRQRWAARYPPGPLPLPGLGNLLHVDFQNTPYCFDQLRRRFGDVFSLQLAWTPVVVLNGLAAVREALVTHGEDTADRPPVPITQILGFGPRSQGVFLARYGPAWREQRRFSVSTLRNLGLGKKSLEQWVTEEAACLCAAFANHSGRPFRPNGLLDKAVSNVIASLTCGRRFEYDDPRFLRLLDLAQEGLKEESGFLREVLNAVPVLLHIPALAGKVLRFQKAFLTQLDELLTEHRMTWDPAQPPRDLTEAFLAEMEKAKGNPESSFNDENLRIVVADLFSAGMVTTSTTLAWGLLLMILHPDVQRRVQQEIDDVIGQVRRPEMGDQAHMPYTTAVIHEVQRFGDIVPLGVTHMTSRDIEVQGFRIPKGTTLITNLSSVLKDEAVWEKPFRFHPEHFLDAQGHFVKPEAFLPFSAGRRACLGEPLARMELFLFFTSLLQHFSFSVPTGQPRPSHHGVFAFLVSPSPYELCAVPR
Chain of Cytochrome P450 2C9 (P11712 whole entry): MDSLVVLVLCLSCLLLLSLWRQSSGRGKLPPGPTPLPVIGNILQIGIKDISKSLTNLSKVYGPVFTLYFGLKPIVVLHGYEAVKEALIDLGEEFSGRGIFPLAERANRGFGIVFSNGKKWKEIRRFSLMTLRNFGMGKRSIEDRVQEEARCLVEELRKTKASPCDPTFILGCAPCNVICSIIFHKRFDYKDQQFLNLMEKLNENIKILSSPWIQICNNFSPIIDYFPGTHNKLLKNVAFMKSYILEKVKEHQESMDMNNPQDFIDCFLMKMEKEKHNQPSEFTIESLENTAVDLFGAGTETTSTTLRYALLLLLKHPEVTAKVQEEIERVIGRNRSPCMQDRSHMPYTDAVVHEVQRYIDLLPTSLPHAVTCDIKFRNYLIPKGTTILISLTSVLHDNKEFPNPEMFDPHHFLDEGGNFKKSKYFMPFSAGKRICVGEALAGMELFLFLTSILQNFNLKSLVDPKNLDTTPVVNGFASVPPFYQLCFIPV

As for `O=c1cc(-c2ccccc2)oc2cc(O)ccc12` [7-HYDROXYFLAVONE], inhibition against Cytochrome P450 1A2 was half-maximal at 0.24 µM (IC50).

Regarding `O=c1cc(-c2ccccc2)oc2cc(O)cc(O)c12` [CHRYSIN], the IC50 (as a rule, the concentration at which inhibition is half-maximal) at Cytochrome P450 2C9 was 5.23 µM; at Cytochrome P450 2D6, > 50 µM; against Cytochrome P450 3A4 it was > 50 µM.
